Reference: publication PMC9250534, “Synthesis and direct assay of large macrocycle diversities by combinatorial late-stage modification at picomole scale” (Nature Communications, 2022)

Biological target: MDM2 (Homo sapiens, UniProt Q00987)
Experiment: MDM2 binding screen of Libraries 3 and 4: displacement of fluorescent probe F-M8 at 750 nM macrocycle
Outline: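 Cyclic peptide scaffolds were acylated in DMSO with carboxylic acids (20 equiv.), HBTU and DABCO for 6 h at room temperature. Reactions were quenched overnight in 100 mM Tris-Cl pH 7.4, 0.01% Tween20. The fluorescein conjugate was also competed with nutlin-3a.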

[1] = Panel b, Library 3: 63 scaffolds combinatorially acylated with 15 carboxylic acids at 30 picomole scale, displacement of fluorescent peptide probe, macrocycle 750 nM
[2] = Panel c, Library 4: best nine scaffolds and 15 additional carboxylic acids, displacement of fluorescent probe

Sequence of MDM2 (Q00987 whole entry): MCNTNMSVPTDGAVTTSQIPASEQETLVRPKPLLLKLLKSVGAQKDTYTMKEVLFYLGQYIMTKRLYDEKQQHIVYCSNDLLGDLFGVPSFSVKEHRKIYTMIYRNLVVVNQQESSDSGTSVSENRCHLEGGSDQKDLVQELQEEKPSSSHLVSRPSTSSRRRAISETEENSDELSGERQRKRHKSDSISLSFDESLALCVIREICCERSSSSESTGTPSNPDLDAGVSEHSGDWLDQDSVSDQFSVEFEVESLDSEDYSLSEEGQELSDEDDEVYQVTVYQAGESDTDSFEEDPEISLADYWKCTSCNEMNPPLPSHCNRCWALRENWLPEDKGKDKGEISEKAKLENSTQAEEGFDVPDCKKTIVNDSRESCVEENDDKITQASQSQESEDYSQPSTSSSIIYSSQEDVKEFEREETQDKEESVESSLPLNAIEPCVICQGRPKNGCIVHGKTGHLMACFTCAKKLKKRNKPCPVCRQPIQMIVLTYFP

Row | SMILES | fraction of fluorescent probe displaced [1] | fraction of fluorescent probe displaced [2]
1 | O=C(NC[C@@H]1NC(=O)[C@@H]2CN(CCO2)C(=O)CCSSCCNC(=O)[C@H](Cc2c[nH]c3cc(Cl)ccc23)NC1=O)c1ccc2ccccc2c1 [X-Cop-Dap-Cl-Trp + Acid 107] | 0.102 | –
2 | O=C(CCS(=O)(=O)c1ccccc1)NC[C@@H]1NC(=O)[C@H]2CCCN(C2)C(=O)CCSSCCNC(=O)[C@@H](Cc2c[nH]c3ccccc23)NC1=O [X-Nip-Dap-D-Trp + Acid 114] | 0.00133 | –
3 | O=C1CCSSCCNC(=O)C(Cc2c[nH]c3ccccc23)NC(=O)C(CNC(=O)C2CC2c2ccccc2)NC(=O)C2(CC2)CN1 (mixture of isomers) [X-Amcp-D-Dap-D-Trp + Acid 105] | -0.041 | –
4 | O=C1CCSSCCNC(=O)[C@H](Cc2ccc3ccccc3c2)NC(=O)CN(CCNC(=O)c2ccc3ccccc3c2)C(=O)C2(CC2)CN1 [X-Amcp-N-Aeg-2-Nal + Acid 107] | 0.018 | –
5 | O=C1CCSSCCNC(=O)C(Cc2cccc3ccccc23)NC(=O)C(CNC(=O)C2CC2c2ccccc2)NC(=O)C2(CC2)CN1 (mixture of isomers) [X-Amcp-D-Dap-1-NaI + Acid 105] | -0.034 | –
6 | O=C(/C=C/c1ccc(Cl)cc1)NC[C@H]1NC(=O)C2(CC2)CNC(=O)CCSSCCNC(=O)[C@H](Cc2c[nH]c3cc(Cl)ccc23)NC1=O [X-Amcp-D-Dap-Cl-Trp + Acid 108] | -0.025 | –
7 | O=C(/C=C/c1ccc2ccccc2c1)NC[C@@H]1NC(=O)[C@H]2CCCN(C2)C(=O)CCSSCCNC(=O)[C@H](Cc2c[nH]c3cc(Cl)ccc23)NC1=O [X-Nip-Dap-Cl-Trp + Acid 112] | 0.221 | –
8 | O=C(/C=C/c1ccc(Cl)c(Cl)c1)NC[C@@H]1NC(=O)[C@H]2CCCN(C2)C(=O)CCSSCCNC(=O)[C@H](Cc2cccc3ccccc23)NC1=O [X-Nip-Dap-1-NaI + Acid 119] | – | 0.0035
9 | O=C(CCS(=O)(=O)c1ccccc1)NC[C@H]1NC(=O)[C@H]2CCCN(C2)C(=O)CCSSCCNC(=O)[C@H](Cc2cccc3ccccc23)NC1=O [X-Nip-D-Dap-1-NaI + Acid 114] | -0.00533 | –
10 | O=C1CCSSCCNC(=O)[C@@H](Cc2c[nH]c3ccccc23)NC(=O)[C@@H](CNC(=O)c2cccc(Oc3ccccc3)c2)NC(=O)C2(CC2)CN1 [X-Amcp-D-Dap-D-Trp + Acid 111] | -0.019 | –
11 | Cn1cc(C[C@@H]2NC(=O)[C@H](CNC(=O)/C=C/c3ccc(Cl)cc3)NC(=O)C3(CC3)CNC(=O)CCSSCCNC2=O)c2ccccc21 [X-Amcp-Dap-Me-Trp + Acid 108] | 0.008 | –
12 | O=C(/C=C/c1ccc2ccccc2c1)NC[C@H]1NC(=O)C2(CC2)CNC(=O)CCSSCCNC(=O)[C@H](Cc2cccc3ccccc23)NC1=O [X-Amcp-D-Dap-1-NaI + Acid 112] | -0.00533 | –
13 | Cn1cc(C[C@@H]2NC(=O)[C@@H](CNC(=O)c3ccc(Cl)s3)NC(=O)[C@H]3CCCN(C3)C(=O)CCSSCCNC2=O)c2ccccc21 [X-Nip-D-Dap-Me-Trp + Acid 14] | 0.008 | –
14 | O=C1CCSSCCNC(=O)[C@H](Cc2cccc3ccccc23)NC(=O)[C@@H](CNC(=O)c2ccc(Cl)s2)NC(=O)C2(CC2)CN1 [X-Amcp-D-Dap-1-NaI + Acid 14] | 0.008 | –
15 | CC(Oc1cccc(Cl)c1)C(=O)NCCN1CC(=O)NC(Cc2cccc3ccccc23)C(=O)NCCSSCCC(=O)N2CCCC(C2)C1=O (mixture of isomers) [X-Nip-N-Aeg-1-NaI + Acid 113] | -0.00533 | –
16 | Cn1cc(C[C@@H]2NC(=O)[C@@H](CNC(=O)/C=C/c3ccc(OCc4ccccc4)cc3)NC(=O)[C@H]3CCCN(C3)C(=O)CCSSCCNC2=O)c2ccccc21 [X-Nip-D-Dap-Me-Trp + Acid 110] | 0.008 | –
17 | CN1C(=O)[C@@H](CNC(=O)c2ccc3ccccc3c2)NC(=O)[C@H]2CCCN(C2)C(=O)CCSSCCNC(=O)[C@@H]1Cc1c[nH]c2ccccc12 [X-Nip-D-Dap-NMe-Trp + Acid 107] | 0.031 | –
18 | CC(Oc1cccc(Cl)c1)C(=O)NC[C@H]1NC(=O)C2(CC2)CNC(=O)CCSSCCNC(=O)[C@H](Cc2cccc3ccccc23)NC1=O (stereo partly drawn) [X-Amcp-D-Dap-1-NaI + Acid 113] | -0.00533 | –
19 | Cn1cc(C[C@@H]2NC(=O)[C@@H](CNC(=O)C3COc4ccccc4O3)NC(=O)C3(CC3)CNC(=O)CCSSCCNC2=O)c2ccccc21 (stereo partly drawn) [X-Amcp-D-Dap-Me-Trp + Acid 115] | 0.015 | –
20 | CN1C(=O)[C@H](CNC(=O)/C=C/c2ccc3ccccc3c2)NC(=O)[C@H]2CCCN(C2)C(=O)CCSSCCNC(=O)[C@@H]1Cc1c[nH]c2ccccc12 [X-Nip-Dap-NMe-Trp + Acid 112] | 0.015 | –

Row | SMILES | fraction of fluorescent probe displaced [1] | fraction of fluorescent probe displaced [2]
21 | O=C(/C=C/c1cccc(Cl)c1)NC[C@@H]1NC(=O)[C@H]2CCCN(C2)C(=O)CCSSCCNC(=O)[C@H](Cc2cccc3ccccc23)NC1=O [X-Nip-Dap-1-NaI + Acid 121] | – | -0.00464
22 | CN1C(=O)CN(CCNC(=O)c2ccc(Cl)s2)C(=O)C2(CC2)CNC(=O)CCSSCCNC(=O)[C@@H]1Cc1c[nH]c2ccccc12 [X-Amcp-N-Aeg-NMe-Trp + Acid 14] | -0.012 | –
23 | O=C(NC[C@@H]1NC(=O)[C@H]2CCCN(C2)C(=O)CCSSCCNC(=O)[C@H](Cc2c[nH]c3cc(Cl)ccc23)NC1=O)c1ccc2ccccc2c1 [X-Nip-Dap-Cl-Trp + Acid 107] | 0.232 | –
24 | CN1C(=O)[C@H](CNC(=O)/C=C/c2ccc(OCc3ccccc3)cc2)NC(=O)[C@H]2CCCN(C2)C(=O)CCSSCCNC(=O)[C@@H]1Cc1c[nH]c2ccccc12 [X-Nip-Dap-NMe-Trp + Acid 110] | 0.015 | –
25 | Cn1cc(C[C@@H]2NC(=O)[C@H](CNC(=O)c3ccc4ccccc4c3)NC(=O)[C@H]3CCCN(C3)C(=O)CCSSCCNC2=O)c2ccccc21 [X-Nip-Dap-Me-Trp + Acid 107] | 0.076 | –
26 | Cn1cc(C[C@@H]2NC(=O)[C@@H](CNC(=O)/C=C/c3ccc4ccccc4c3)NC(=O)[C@H]3CCCN(C3)C(=O)CCSSCCNC2=O)c2ccccc21 [X-Nip-D-Dap-Me-Trp + Acid 112] | 0.021 | –
27 | O=C(/C=C/c1ccc2ccccc2c1)NCCN1CC(=O)N[C@H](Cc2c[nH]c3ccccc23)C(=O)NCCSSCCC(=O)NCC2(CC2)C1=O [X-Amcp-N-Aeg-D-Trp + Acid 112] | 0.008 | –
28 | O=C1CCSSCCNC(=O)[C@H](Cc2ccc3ccccc3c2)NC(=O)[C@@H](CNC(=O)c2ccc(Cl)s2)NC(=O)C2(CC2)CN1 [X-Amcp-D-Dap-2-Nal + Acid 14] | 0.00133 | –
29 | O=C(/C=C/c1cccc(Cl)c1)NC[C@@H]1NC(=O)C2(CC2)CNC(=O)CCSSCCNC(=O)[C@H](Cc2c[nH]c3ccccc23)NC1=O [X-Amcp-Dap-Trp + Acid 121] | – | 0.052
30 | O=C1CN(CCNC(=O)c2ccc(Cl)s2)C(=O)[C@H]2CCCN(C2)C(=O)CCSSCCNC(=O)[C@H](Cc2c[nH]c3ccccc23)N1 [X-Nip-N-Aeg-Trp + Acid 14] | -0.00533 | –
31 | O=C(/C=C/c1ccc(Cl)c(Cl)c1)NC[C@@H]1NC(=O)C2(CC2)CNC(=O)CCSSCCNC(=O)[C@H](Cc2c[nH]c3ccccc23)NC1=O [X-Amcp-Dap-Trp + Acid 119] | – | 0.069
32 | Cn1cc(C[C@@H]2NC(=O)[C@H](CNC(=O)/C=C/c3ccc4ccccc4c3)NC(=O)[C@H]3CCCN(C3)C(=O)CCSSCCNC2=O)c2ccccc21 [X-Nip-Dap-Me-Trp + Acid 112] | 0.188 | –
33 | O=C(CCS(=O)(=O)c1ccccc1)NCCN1CC(=O)N[C@H](Cc2c[nH]c3ccccc23)C(=O)NCCSSCCC(=O)NCC2(CC2)C1=O [X-Amcp-N-Aeg-D-Trp + Acid 114] | 0.055 | –
34 | Cn1cc(C[C@@H]2NC(=O)[C@H](CNC(=O)/C=C/c3cccc(C(F)(F)F)c3)NC(=O)[C@H]3CCCN(C3)C(=O)CCSSCCNC2=O)c2ccccc21 [X-Nip-Dap-Me-Trp + Acid 122] | – | 0.101
35 | O=C1CCSSCCNC(=O)[C@H](Cc2c[nH]c3ccccc23)NC(=O)[C@@H](CNC(=O)c2ccc(Cl)s2)NC(=O)C2(CC2)CN1 [X-Amcp-D-Dap-Trp + Acid 14] | -0.00533 | –
36 | Cn1cc(C[C@@H]2NC(=O)[C@@H](CNC(=O)/C=C/c3ccc(Cl)cc3)NC(=O)[C@H]3CCCN(C3)C(=O)CCSSCCNC2=O)c2ccccc21 [X-Nip-D-Dap-Me-Trp + Acid 108] | 0.015 | –
37 | O=C1CCSSCCNC(=O)[C@H](Cc2c[nH]c3ccccc23)NC(=O)[C@@H](CNC(=O)c2ccc(Cl)cc2)NC(=O)C2(CC2)CN1 [X-Amcp-D-Dap-Trp + Acid 25] | -0.00533 | –
38 | O=C(NC[C@H]1NC(=O)[C@H]2CCCN(C2)C(=O)CCSSCCNC(=O)[C@H](Cc2c[nH]c3cc(Cl)ccc23)NC1=O)C1COc2ccccc2O1 (stereo partly drawn) [X-Nip-D-Dap-Cl-Trp + Acid 115] | -0.012 | –
39 | Cn1cc(C[C@@H]2NC(=O)[C@H](CNC(=O)CCS(=O)(=O)c3ccccc3)NC(=O)[C@H]3CCCN(C3)C(=O)CCSSCCNC2=O)c2ccccc21 [X-Nip-Dap-Me-Trp + Acid 114] | -0.00533 | –
40 | O=C(NC[C@H]1NC(=O)[C@@H]2CN(CCO2)C(=O)CCSSCCNC(=O)[C@H](Cc2ccc3ccccc3c2)NC1=O)c1ccc(Cl)s1 [X-Cop-D-Dap-2-Nal + Acid 14] | -0.00533 | –
